{"source": "patent US20210308228A1", "about": "“METHOD FOR REDUCING THE OCCURRENCE OF THROMBOSIS OR THROMBOEMBOLISM” (THE BOARD OF REGENTS OF THE UNIVERSITY OF TEXAS SYSTEM, priority 2020, published 2021)", "key": {"FXa": {"tested_on": "FXa", "test": "Anti-FXa levels determined chromogenically (ACL-TOP) in plasma treated ex vivo with enoxaparin", "type": "biochemical, human", "conditions": "for Anti FXa levels (IU/mL): median", "excerpt": "(§1) Citrated plasma samples were thawed immediately prior to use. First, plasma from healthy, uninjured volunteers was used to optimize ex vivo dosing of enoxaparin. […] Given that the inventors spiked plasma with an enoxaparin dose of 0.13 IU/mL, our target anti-FXa level in response to enoxaparin was defined as 0.13 IU/mL. The responses to enoxaparin between healthy uninjured volunteers and trauma patients were compared by treating all plasma samples ex vivo with 0.13 IU/mL of enoxaparin. Trauma patient samples were additionally supplemented with AT using either FFP at a dose of 30% volume or AT concentrate in the form of THROMBATE III®, provided by Grifols, up to 80%, 120%, 150%, 180%, and 200% final concentration based on baseline values. This was done in an effort to improve patient plasma responses to enoxaparin to the levels observed in healthy controls. Similar to our previous work, the inventors chose FFP at a dose of 30% volume to model the effects of transfusing six units of plasma. Calculations were based on the activity (IUs) provided by the manufacturer for a given lot of THROMB ATE III® (approximately 500 IUs/10 mL) and the patient's baseline AT activity levels. AT supplementation was confirmed by measuring AT activity using ACL-TOP. Thrombin generation and anti-FXa levels were measured to assess the response to enoxaparin and supplementation with AT. Healthy volunteer plasma served as an uninjured control for normal AT, anti-FXa, and thrombin generation levels before and after treatment with enoxaparin.\n(§2) AT activity and anti-FXa levels were determined chromogenically using an ACL-TOP Coagulation Analyzer (Instrumentation Laboratory, Bedford Mass.). Thrombin generation was measured using a calibrated automated thrombogram (CAT) (Thermo Fisher Scientific, Waltham Mass.) as previously described. Relevant parameters resulting from CAT analysis include lag time (the time to initiation of thrombin generation; min), peak (the highest amount of thrombin generated; nM), time to peak [ttpeak] (the time it takes to achieve the peak; min), endogenous thrombin potential [ETP] (the total amount of thrombin generated over time; […]), and rate (the velocity of thrombin generation dictated by the slope of the thrombin generation curve; nM/min)."}, "thrombin generation": {"tested_on": "thrombin generation", "test": "Thrombin generation by calibrated automated thrombogram (CAT) in plasma treated ex vivo", "type": "biochemical, human", "conditions": "for Delta ETP (%) / Delta Lagtime (%) / Delta Peak (%) / Delta Rate (%) / Delta ttPeak (%): enoxaparin 0.13 U/mL, median change vs baseline", "excerpt": "as §1, §2"}, "[1]": {"conditions": "Healthy Donors (N = 15) plasma, enoxaparin 0.13 U/mL"}, "[2]": {"conditions": "No PE patients (N = 46) plasma, enoxaparin 0.13 U/mL"}, "[3]": {"conditions": "PE patients (N = 54) plasma, enoxaparin 0.13 U/mL"}, "[4]": {"conditions": "Trauma Patients (N = 100) plasma, enoxaparin 0.13 U/mL"}, "[5]": {"conditions": "Trauma Patients (N = 100) plasma"}}, "note": "Marks after values point to notes of the source that are not given here.", "data": [{"substance": "enoxaparin", "values": [{"measurement": "Rate Anti FXa ≥ 0.13 (number)", "setting": "FXa; [1]", "result": 15}, {"measurement": "Rate Anti FXa ≥ 0.13 (percentage)", "setting": "FXa; [1]", "result": "(100%)"}, {"measurement": "Anti FXa levels (IU/mL)", "setting": "FXa; [1]", "result": 0.16, "unit": "IU/mL"}, {"measurement": "Rate Anti FXa ≥ 0.13 (number)", "setting": "FXa; [2]", "result": 26}, {"measurement": "Rate Anti FXa ≥ 0.13 (percentage)", "setting": "FXa; [2]", "result": "(57%)"}, {"measurement": "Anti FXa levels (IU/mL)", "setting": "FXa; [2]", "result": 0.14, "unit": "IU/mL"}, {"measurement": "Rate Anti FXa ≥ 0.13 (number)", "setting": "FXa; [3]", "result": 24}, {"measurement": "Rate Anti FXa ≥ 0.13 (percentage)", "setting": "FXa; [3]", "result": "(44%)"}, {"measurement": "Anti FXa levels (IU/mL)", "setting": "FXa; [3]", "result": 0.13, "unit": "IU/mL"}, {"measurement": "Rate Anti FXa ≥ 0.13 (number)", "setting": "FXa; [4]", "result": 59}, {"measurement": "Rate Anti FXa ≥ 0.13 (percentage)", "setting": "FXa; Trauma Patients (N = 100) plasma, enoxaparin 0.13 U/mL alone", "result": "(59%)*"}, {"measurement": "Rate Anti FXa ≥ 0.13 (percentage)", "setting": "FXa; Trauma Patients (N = 100) plasma, enoxaparin 0.13 U/mL alone, listed as enoxaparin", "result": 59, "unit": "%"}, {"measurement": "Anti FXa levels (IU/mL)", "setting": "FXa; [4]", "result": 0.13, "unit": "IU/mL"}, {"measurement": "Delta ETP (%)", "setting": "thrombin generation; Healthy Donors (N = 15) plasma", "result": "−43", "unit": "%"}, {"measurement": "Delta Lagtime (%)", "setting": "thrombin generation; Healthy Donors (N = 15) plasma", "result": 6.6, "unit": "%"}, {"measurement": "Delta Peak (%)", "setting": "thrombin generation; Healthy Donors (N = 15) plasma", "result": "−55", "unit": "%"}, {"measurement": "Delta Rate (%)", "setting": "thrombin generation; Healthy Donors (N = 15) plasma", "result": "−65", "unit": "%"}, {"measurement": "Delta ttPeak (%)", "setting": "thrombin generation; Healthy Donors (N = 15) plasma", "result": 17, "unit": "%"}, {"measurement": "Delta ETP (%)", "setting": "thrombin generation; No PE patients (N = 46) plasma", "result": "−15.6", "unit": "%"}, {"measurement": "Delta Lagtime (%)", "setting": "thrombin generation; No PE patients (N = 46) plasma", "result": 6.6, "unit": "%"}, {"measurement": "Delta Peak (%)", "setting": "thrombin generation; No PE patients (N = 46) plasma", "result": "−30.6", "unit": "%"}, {"measurement": "Delta Rate (%)", "setting": "thrombin generation; No PE patients (N = 46) plasma", "result": "−45.4", "unit": "%"}, {"measurement": "Delta ttPeak (%)", "setting": "thrombin generation; No PE patients (N = 46) plasma", "result": 13.0, "unit": "%"}, {"measurement": "Delta ETP (%)", "setting": "thrombin generation; PE patients (N = 54) plasma", "result": "−13.2", "unit": "%"}, {"measurement": "Delta Lagtime (%)", "setting": "thrombin generation; PE patients (N = 54) plasma", "result": 7.9, "unit": "%"}, {"measurement": "Delta Peak (%)", "setting": "thrombin generation; PE patients (N = 54) plasma", "result": "−20.7", "unit": "%"}, {"measurement": "Delta Rate (%)", "setting": "thrombin generation; PE patients (N = 54) plasma", "result": "−34.2", "unit": "%"}, {"measurement": "Delta ttPeak (%)", "setting": "thrombin generation; PE patients (N = 54) plasma", "result": 10.7, "unit": "%"}, {"measurement": "Delta ETP (%)", "setting": "thrombin generation; [5]", "result": "−14", "unit": "%"}, {"measurement": "Delta Lagtime (%)", "setting": "thrombin generation; [5]", "result": 7.9, "unit": "%"}, {"measurement": "Delta Peak (%)", "setting": "thrombin generation; [5]", "result": "−24", "unit": "%"}, {"measurement": "Delta Rate (%)", "setting": "thrombin generation; [5]", "result": "−39", "unit": "%"}, {"measurement": "Delta ttPeak (%)", "setting": "thrombin generation; [5]", "result": 12, "unit": "%"}, {"measurement": "reduction in peak thrombin", "setting": "thrombin generation; plasma of patients who did develop PE, ex vivo enoxaparin", "result": 20.7, "unit": "%"}, {"measurement": "median reduction in peak thrombin", "setting": "thrombin generation; plasma of patients who did not develop PE, ex vivo enoxaparin", "result": 30.6, "unit": "%"}]}]}
